Values quoted from earlier work, collected in patent US20040248932A1, “Use of aryl- and heteroaryl-substituted tetrahydroisoquinolines in the treatment of chronic and neuropathic pain, migraine headaches, and urge, stress and mixed urinary incontinence” (priority 2002, published 2004).

Settings: nocturnal enuresis, following treatment

## CN(C)CCCN1c2ccccc2CCc2ccccc21 [imipramine, Imipramine]
  further patients in whom improvements can be seen: 15-20%
  patients in whom enuresis can be cured: over 50%
